Reference: patent US10857153B2, “Pyrimidine compounds containing acidic groups” (Apros Therapeutics, Inc., priority 2018, dated 2020)

What was measured:
human TLR7 = biological target: T1, human TLR7 (Homo sapiens, UniProt Q9NYK1); test: HEK-TLR7 assay (HEK-Blue hTLR7 cells, SEAP reporter); assay type: cell-based; details: 16 h
T1 construct: host or cells: HEK293 (HEK-Blue™ hTLR7)
T1 sequence (Q9NYK1 27-1049): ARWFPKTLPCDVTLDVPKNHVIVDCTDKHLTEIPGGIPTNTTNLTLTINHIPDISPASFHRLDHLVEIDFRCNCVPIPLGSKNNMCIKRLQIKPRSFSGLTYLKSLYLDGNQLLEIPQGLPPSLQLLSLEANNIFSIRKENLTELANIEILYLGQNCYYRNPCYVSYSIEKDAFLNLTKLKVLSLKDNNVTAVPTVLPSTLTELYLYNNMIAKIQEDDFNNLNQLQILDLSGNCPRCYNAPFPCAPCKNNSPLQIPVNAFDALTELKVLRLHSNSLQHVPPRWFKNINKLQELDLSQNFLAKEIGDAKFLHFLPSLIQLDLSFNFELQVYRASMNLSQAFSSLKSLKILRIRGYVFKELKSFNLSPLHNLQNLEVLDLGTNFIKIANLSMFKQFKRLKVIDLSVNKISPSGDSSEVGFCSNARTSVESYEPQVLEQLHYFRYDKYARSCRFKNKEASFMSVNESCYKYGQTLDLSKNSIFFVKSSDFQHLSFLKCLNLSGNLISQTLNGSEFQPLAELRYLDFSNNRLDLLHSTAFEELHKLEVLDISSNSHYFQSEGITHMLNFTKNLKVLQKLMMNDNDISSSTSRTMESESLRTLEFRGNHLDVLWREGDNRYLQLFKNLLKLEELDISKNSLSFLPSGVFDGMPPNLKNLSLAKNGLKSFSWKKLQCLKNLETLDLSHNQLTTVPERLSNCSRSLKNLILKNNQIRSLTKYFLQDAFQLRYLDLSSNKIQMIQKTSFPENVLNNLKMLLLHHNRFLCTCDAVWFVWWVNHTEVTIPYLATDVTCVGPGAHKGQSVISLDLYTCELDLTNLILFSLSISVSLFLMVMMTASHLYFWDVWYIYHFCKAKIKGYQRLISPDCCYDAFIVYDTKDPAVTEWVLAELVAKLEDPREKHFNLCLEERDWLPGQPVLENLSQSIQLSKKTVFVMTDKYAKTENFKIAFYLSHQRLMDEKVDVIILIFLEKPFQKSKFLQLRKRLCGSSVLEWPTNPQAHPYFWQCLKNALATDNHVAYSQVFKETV
Excerpt: HEK-Blue™ TLR7 cells were purchased from Invivogen (San Diego, Calif.). The following description was taken from the product information sheet.
“HEK-Blue™ hTLR7 cells are designed for studying the stimulation of human TLR7 (hTLR7) by monitoring the activation of NF-kB. HEK-Blue™ hTLR7 cells were obtained by co-transfection of the hTLR7 gene and an optimized secreted embryonic alkaline phosphatase (SEAP) reporter gene into HEK293 cells. The SEAP reporter gene is placed under the control of the IFN-b minimal promoter fused to five NF-kB and AP-1-binding sites. Stimulation with a TLR7 ligand activates NF-kB and AP-1 which induce the production of SEAP, which is detected by the HEK-Blue™ Detection cell culture medium.”
A typical assay protocol involved the following steps: • 1. Cells were cultured according to the product information sheet. • 2. 10 mM compound stock in DMSO were first diluted to 3 mM and then 3-fold serially diluted using DMSO to afford a 10-pt dilution. • 3. 3 μl of the diluted DMSO were added to 57 μl HEK-Blue™ Detection media for a further 20-fold dilution. • 4. 10 μl of the diluted compound in assay media were added into 40 μl cell culture (in HEK-Blue™ Detection media) in 384-well plate. Final cell concentration=8,000 cells per well. • 5. The plates were incubated at 37° C. in 5% CO2 for 16 h. SEAP was determined using a spectrophotometer at 620-655 nm.

[1] = test system: CT26 cells stably expressing luciferase; test: CT26 metastatic lung cancer model; details: for median survival time: intranasal, in combination with anti-PD-L1, twice a week, 8 doses; for mean bioluminescence (tumor burden) versus anti-PD-L1 or anti-PD-L1 with Compound 50 or AZD8848: in combination with anti-PD-L1, for more than 20 days after injection of tumor cells
Experimental: To establish a lung cancer model, 5e5 CT26 cells stably expressing luciferase (Imanis Life Sciences) were injected intravenously into female Balb/c mice on Day 0. On Day 4 post challenge, mice were anesthetized and subjected to whole body bioluminescent imaging (IVIS; Perkin Elmer) to determine tumor burden and in vivo location. Mice with detectable lung tumors were enrolled into the study and randomized such that the average bioluminescence and variance is equivalent amongst all of the study groups. Animals were dosed twice a week for a total of 8 doses with the indicated treatments, and imaged weekly to determine total tumor burden over the course of the treatment.
The known TLR7 compound AZD8848 was used as a comparator and administered in combination with anti-PD-L1 to the mice. […] Each treatment group contained 10 mice.

TLR7 = test: Pharmacodynamic experiment: serum IP-10 after intranasal dosing; assay type: in vivo; details: BALB/c mice, 60 micrograms intranasally, 5 hours
Experimental: IP-10 is a biomarker of TLR7 target activation. Higher production levels of IP-10 is an indication of higher target engagement in vivo. In this study, 3 BALB/c mice per group were dosed intranasally with 60 micrograms of Compound 1B, 2B, 3B, Compound 50 or AZD8848. The test compounds were formulated as a 1 mg/mL solution in 0.5% carboxy methycellulose. Animals were sacrificed after 5 hours. Serum IP-10 concentrations were measured using a commercial ELISA kit purchased from Meso Scale Discovery.

[2] = Formulation preparation and solubility examination; assay type: physicochemical; details: 1 mg/mL in 0.5% carboxy methycellulose in water, pH 6-7
Experimental: The resulting formulations were vortexed and stored at 4° C. before dosing.

Row | Compound | EC50 (human TLR7) [µM] | median survival time [1] [days] | mean serum IP-10 concentration (TLR7) | appearance of formulation (solubility) [2] | mean bioluminescence (tumor burden) versus anti-PD-L1 or anti-PD-L1 with Compound 50 or AZD8848 [1]
1 | CCCCOc1nc(N)c2[nH]c(=O)n(CCCN(CCCN3CCOCC3)Cc3cccc(CC(=O)OC)c3)c2n1 [AZD8848, reference compound] | 0.037 | 23 | 96 pg/mL | turbid suspension | –
2 | CCCC[C@@H](CCS(C)(=O)=O)Nc1nc(N)nc(CCC(=O)O)c1Cc1cc(Cc2nn[nH]n2)ccc1OC [Compound 1B, (S)-3-(5-(5-((2H-tetrazol-5-yl)methyl)-2-methoxybenzyl)-2-amino-6-((1-(methyl-sulfonyl)heptan-3-yl)amino)pyrimidin-4-yl)propanoic acid] | 0.23 | 36 | about 700 pg/mL | – | lower
3 | CCCC[C@@H](CCO)Nc1nc(N)nc(CCC(=O)O)c1Cc1cc(CC(=O)O)ccc1OC [Compound 2B, (S)-3-(2-amino-5-(5-(carboxymethyl)-2-methoxybenzyl) -6-((1-hydroxyheptan-3-yl)amino)pyrimidin-4-yl)propanoic acid] | 0.27 | 32 | ~150 pg/mL | – | lower
4 | CCCC[C@@H](CCO)Nc1nc(N)nc(CCC(=O)O)c1Cc1cc(Cc2nn[nH]n2)ccc1OC [Compound 3B, (S)-3-(5-(5-((2H-tetrazol-5-yl)methyl)-2-methoxybenzyl)-2-amino-6-((1-hydroxyheptan-3-yl)amino)pyrimidin-4-yl)propanoic acid] | 0.27 | 36 | ~1300 pg/mL | – | lower
5 | CCCC[C@@H](CCS(C)(=O)=O)Nc1nc(N)nc(CCC(=O)O)c1Cc1cc(CC(=O)O)ccc1OC [Compound 50, reference compound] | 0.26 | 29 | 125 pg/mL | clear | –
